Test results published in PubChem BioAssay AID2060901 (Molecular Pharmacology Branch, DTP, NCI, 2025).
pIC50: −log10 of the molar value.

System: 422866-222-R5-J1-PDC complex spheroids viability
Assay: Anticancer human tumor 422866-222-R5-J1-PDC patient-derived pancreatic adenocarcinoma cell line growth inhibition [RAS]
Settings: for pIC50: curve of first compound; for viability, T/C: stronger effect = lower value
Summary of the method: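 Agents were tested in combination matrices in half-log decrements from a top concentration at or near clinical Cmax (10 microM if undetermined). Targets were multi-cell spheroids of tumour lines plus HUVEC and MSC stromal cells.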

[1] = second compound 0.000949 µM, first compound 0.0316 µM
[2] = second compound 0.000949 µM, first compound 0.1 µM
[3] = second compound 0.003 µM, first compound 0.0316 µM
[4] = second compound 0.003 µM, first compound 0.1 µM
[5] = second compound 0.00949 µM, first compound 0.0316 µM
[6] = second compound 0.00949 µM, first compound 0.1 µM
[7] = second compound 0.03 µM, first compound 0.0316 µM
[8] = second compound 0.03 µM, first compound 0.1 µM
[9] = second compound 0.0949 µM, first compound 0.0316 µM
[10] = second compound 0.0949 µM, first compound 0.1 µM
[11] = second compound 0.3 µM, first compound 0.0316 µM
[12] = second compound 0.3 µM, first compound 0.1 µM
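Further: spheroids exposed to compounds for 7 days.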
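Wherever viability, T/C is given: 100% = DMSO vehicle control viability.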

CCN1CCN(Cc2ccc(Nc3ncc(F)c(-c4cc(F)c5nc(C)n(C(C)C)c5c4)n3)nc2)CC1 + C#Cc1c(F)ccc2cc(O)cc(-c3ncc4c(N5CC6CCC(C5)N6)nc(OCC56CCCN5CC(F)C6)nc4c3F)c12
pIC50 (second compound 0.0316 µM): < 6.00
pIC50 (second compound 0.1 µM): < 6.00
pIC50 (second compound 0.316 µM): < 6.00
pIC50 (second compound 1 µM): > 8.50
pIC50 (second compound 3.16 µM): > 8.50
pIC50 (second compound 10 µM): > 8.50
viability, T/C (second compound 0.0316 µM, first compound 0.00316 µM): 79%
viability, T/C (second compound 0.0316 µM, first compound 0.01 µM): 103%
viability, T/C (second compound 0.0316 µM, first compound 0.0316 µM): 88%
viability, T/C (second compound 0.0316 µM, first compound 0.1 µM): 59.5%
viability, T/C (second compound 0.0316 µM, first compound 0.316 µM): 69.3%
viability, T/C (second compound 0.0316 µM, first compound 1 µM): 69.7%
viability, T/C (second compound 0.1 µM, first compound 0.00316 µM): 87.2%
viability, T/C (second compound 0.1 µM, first compound 0.01 µM): 86.3%
viability, T/C (second compound 0.1 µM, first compound 0.0316 µM): 65.3%
viability, T/C (second compound 0.1 µM, first compound 0.1 µM): 62.4%
viability, T/C (second compound 0.1 µM, first compound 0.316 µM): 59%
viability, T/C (second compound 0.1 µM, first compound 1 µM): 77.4%
viability, T/C (second compound 0.316 µM, first compound 0.00316 µM): 73.3%
viability, T/C (second compound 0.316 µM, first compound 0.01 µM): 66.4%
viability, T/C (second compound 0.316 µM, first compound 0.0316 µM): 63.3%
viability, T/C (second compound 0.316 µM, first compound 0.1 µM): 55%
viability, T/C (second compound 0.316 µM, first compound 0.316 µM): 48.5%
viability, T/C (second compound 0.316 µM, first compound 1 µM): 73.1%
viability, T/C (second compound 1 µM, first compound 0.00316 µM): 48.3%
viability, T/C (second compound 1 µM, first compound 0.01 µM): 51.5%
viability, T/C (second compound 1 µM, first compound 0.0316 µM): 43%
viability, T/C (second compound 1 µM, first compound 0.1 µM): 33.5%
viability, T/C (second compound 1 µM, first compound 0.316 µM): 35.4%
viability, T/C (second compound 1 µM, first compound 1 µM): 55.8%
viability, T/C (second compound 3.16 µM, first compound 0.00316 µM): 28.2%
viability, T/C (second compound 3.16 µM, first compound 0.01 µM): 32%
viability, T/C (second compound 3.16 µM, first compound 0.0316 µM): 27.7%
viability, T/C (second compound 3.16 µM, first compound 0.1 µM): 28%
viability, T/C (second compound 3.16 µM, first compound 0.316 µM): 35.2%
viability, T/C (second compound 3.16 µM, first compound 1 µM): 42.1%
viability, T/C (second compound 10 µM, first compound 0.00316 µM): 23.2%
viability, T/C (second compound 10 µM, first compound 0.01 µM): 22.8%
viability, T/C (second compound 10 µM, first compound 0.0316 µM): 21.9%
viability, T/C (second compound 10 µM, first compound 0.1 µM): 19.4%
viability, T/C (second compound 10 µM, first compound 0.316 µM): 25.7%
viability, T/C (second compound 10 µM, first compound 1 µM): 35.2%

CC(C)n1nc(-c2ccc3oc(N)nc3c2)c2c(N)ncnc21 + CCn1c(-c2cc(N3CCN(C)CC3)cnc2C(C)OC)c2c3cc(ccc31)-c1csc(n1)CC(NC(=O)C1CC1C)C(=O)N1CCCC(N1)C(=O)OCC(C)(C)C2
pIC50 (second compound 0.000949 µM): > 9.50
pIC50 (second compound 0.003 µM): > 9.50
pIC50 (second compound 0.00949 µM): > 9.50
pIC50 (second compound 0.03 µM): > 9.50
pIC50 (second compound 0.0949 µM): > 9.50
pIC50 (second compound 0.3 µM): > 9.50
viability, T/C (second compound 0.000949 µM, first compound 0.000316 µM): 35.2%
viability, T/C (second compound 0.000949 µM, first compound 0.001 µM): 28.7%
viability, T/C (second compound 0.000949 µM, first compound 0.00316 µM): 24.4%
viability, T/C (second compound 0.000949 µM, first compound 0.01 µM): 24.5%
viability, T/C [1]: 19.7%
viability, T/C [2]: 21%
viability, T/C (second compound 0.003 µM, first compound 0.000316 µM): 24.4%
viability, T/C (second compound 0.003 µM, first compound 0.001 µM): 22.4%
viability, T/C (second compound 0.003 µM, first compound 0.00316 µM): 19.5%
viability, T/C (second compound 0.003 µM, first compound 0.01 µM): 17%
viability, T/C [3]: 14.3%
viability, T/C [4]: 14.4%
viability, T/C (second compound 0.00949 µM, first compound 0.000316 µM): 22.5%
viability, T/C (second compound 0.00949 µM, first compound 0.001 µM): 16.5%
viability, T/C (second compound 0.00949 µM, first compound 0.00316 µM): 17.8%
viability, T/C (second compound 0.00949 µM, first compound 0.01 µM): 14.2%
viability, T/C [5]: 13.8%
viability, T/C [6]: 11.2%
viability, T/C (second compound 0.03 µM, first compound 0.000316 µM): 19.3%
viability, T/C (second compound 0.03 µM, first compound 0.001 µM): 16.1%
viability, T/C (second compound 0.03 µM, first compound 0.00316 µM): 19.1%
viability, T/C (second compound 0.03 µM, first compound 0.01 µM): 15.7%
viability, T/C [7]: 11.6%
viability, T/C [8]: 8.47%
viability, T/C (second compound 0.0949 µM, first compound 0.000316 µM): 17.7%
viability, T/C (second compound 0.0949 µM, first compound 0.001 µM): 20.1%
viability, T/C (second compound 0.0949 µM, first compound 0.00316 µM): 18.3%
viability, T/C (second compound 0.0949 µM, first compound 0.01 µM): 14.2%
viability, T/C [9]: 12.2%
viability, T/C [10]: 10.9%
viability, T/C (second compound 0.3 µM, first compound 0.000316 µM): 19.7%
viability, T/C (second compound 0.3 µM, first compound 0.001 µM): 21.3%
viability, T/C (second compound 0.3 µM, first compound 0.00316 µM): 20.5%
viability, T/C (second compound 0.3 µM, first compound 0.01 µM): 16.4%
viability, T/C [11]: 14.5%
viability, T/C [12]: 10.9%

C[C@@H](NC(=O)c1ncnc(N)c1Cl)c1ncc(C(=O)Nc2cc(C(F)(F)F)c(Cl)cn2)s1 + CCn1c(-c2cc(N3CCN(C)CC3)cnc2C(C)OC)c2c3cc(ccc31)-c1csc(n1)CC(NC(=O)C1CC1C)C(=O)N1CCCC(N1)C(=O)OCC(C)(C)C2
pIC50 (second compound 0.000949 µM): > 7.50
pIC50 (second compound 0.003 µM): > 7.50
pIC50 (second compound 0.00949 µM): > 7.50
pIC50 (second compound 0.03 µM): > 7.50
pIC50 (second compound 0.0949 µM): > 7.50
pIC50 (second compound 0.3 µM): > 7.50
viability, T/C [1]: 33.8%
viability, T/C [2]: 40.3%
viability, T/C (second compound 0.000949 µM, first compound 0.316 µM): 33.5%
viability, T/C (second compound 0.000949 µM, first compound 1 µM): 36.9%
viability, T/C (second compound 0.000949 µM, first compound 3.16 µM): 39.1%
viability, T/C (second compound 0.000949 µM, first compound 10 µM): 37.2%
viability, T/C [3]: 24.8%
viability, T/C [4]: 26.4%
viability, T/C (second compound 0.003 µM, first compound 0.316 µM): 26.2%
viability, T/C (second compound 0.003 µM, first compound 1 µM): 25.8%
viability, T/C (second compound 0.003 µM, first compound 3.16 µM): 26.1%
viability, T/C (second compound 0.003 µM, first compound 10 µM): 30.1%
viability, T/C [5]: 21%
viability, T/C [6]: 20.3%
viability, T/C (second compound 0.00949 µM, first compound 0.316 µM): 21.1%
viability, T/C (second compound 0.00949 µM, first compound 1 µM): 22.2%
viability, T/C (second compound 0.00949 µM, first compound 3.16 µM): 24.3%
viability, T/C (second compound 0.00949 µM, first compound 10 µM): 24.3%
viability, T/C [7]: 20.4%
viability, T/C [8]: 19.8%
viability, T/C (second compound 0.03 µM, first compound 0.316 µM): 20.8%
viability, T/C (second compound 0.03 µM, first compound 1 µM): 23.8%
viability, T/C (second compound 0.03 µM, first compound 3.16 µM): 24.1%
viability, T/C (second compound 0.03 µM, first compound 10 µM): 22.2%
viability, T/C [9]: 21.3%
viability, T/C [10]: 20.6%
viability, T/C (second compound 0.0949 µM, first compound 0.316 µM): 21.1%
viability, T/C (second compound 0.0949 µM, first compound 1 µM): 19.9%
viability, T/C (second compound 0.0949 µM, first compound 3.16 µM): 23.1%
viability, T/C (second compound 0.0949 µM, first compound 10 µM): 24.3%
viability, T/C [11]: 19.5%
viability, T/C [12]: 20.2%
viability, T/C (second compound 0.3 µM, first compound 0.316 µM): 21.4%
viability, T/C (second compound 0.3 µM, first compound 1 µM): 20.9%
viability, T/C (second compound 0.3 µM, first compound 3.16 µM): 22.6%
viability, T/C (second compound 0.3 µM, first compound 10 µM): 24.8%
